# Measurements taken from patent US4252898A.
# Where two headings read alike, the source gives them in different places.
# Tests used:
# [1] = system: Actinomyces israelii W855; experiment: Susceptibility of anaerobic bacterial isolates, agar dilution; assay type: cell-based; details: 27 hours incubation
# [2] = system: Clostridium perfringens 81; experiment: microbe, parasite or virus in culture; assay type: cell-based; details: Clostridium perfringens, 81, 27 h
# [3] = system: Clostridium septicum 1128; experiment: Susceptibility of anaerobic bacterial isolates, agar dilution; assay type: cell-based; details: 27 hours incubation
# [4] = system: Eubacterium aerofaciens 1235; experiment: as above; assay type: cell-based; details: Collinsella aerofaciens, 27 hours incubation
# [5] = system: Peptococcus asaccharolyticus 1302; experiment: as above; assay type: cell-based; details: Peptoniphilus asaccharolyticus, 27 hours incubation
# Peptococcus prevoti 1281 = experiment: as above; assay type: cell-based; details: 27 hours incubation
# [6] = system: Peptostreptococcus anaerobius 1428; experiment: as above; assay type: cell-based; details: 27 hours incubation
# [7] = system: Peptostreptococcus intermedium 1264; experiment: as above; assay type: cell-based; details: 27 hours incubation
# [8] = system: Propionibacterium acnes 79; experiment: as above; assay type: cell-based; details: Cutibacterium acnes, 27 hours incubation
# [9] = system: Bacteroides fragilis spp. fragilis 111; experiment: as above; assay type: cell-based; details: 27 hours incubation
# [10] = system: Bacteroides fragilis ssp. fragilis 1877; experiment: as above; assay type: cell-based; details: 27 hours incubation
# [11] = system: Bacteroides fragilis ssp. fragilis 1936B; experiment: as above; assay type: cell-based; details: 27 hours incubation
# [12] = system: Bacteroides fragilis ssp. thetaiotaoimicron 1438; experiment: as above; assay type: cell-based; details: 27 hours incubation
# [13] = system: Bacteroides melaninogenicus 1856/28; experiment: as above; assay type: cell-based; details: Prevotella intermedia, 27 hours incubation
# [14] = system: Bacteroides melaninogenicus 2736; experiment: as above; assay type: cell-based; details: 27 hours incubation
# [15] = system: Bacteroides vulgatis 1211; experiment: as above; assay type: cell-based; details: 27 hours incubation
# [16] = system: Bacteroides corrodens 1874; experiment: as above; assay type: cell-based; details: Eikenella corrodens, 27 hours incubation
# [17] = system: Fusobacterium symbiosum 1470; experiment: as above; assay type: cell-based; details: 27 hours incubation
# [18] = system: Fusobacterium necrophorum 6054A; experiment: as above; assay type: cell-based; details: 27 hours incubation
# S. Aureus (3 strains) = experiment: Disc-plate test; details: Staphylococcus aureus, read-out: Disc-Plate Zone Sizes
# S. pyogenes C203 [19] = experiment: Disc-plate test; details: Streptococcus pyogenes, C203, read-out: Disc-Plate Zone Sizes
# Group D Streptococcus = experiment: Disc-plate test; details: read-out: Disc-Plate Zone Sizes
# S. pneumoniae I [20] = experiment: Disc-plate test; details: Streptococcus pneumoniae, read-out: Disc-Plate Zone Sizes
# E. coli Ec-14 = experiment: Disc-plate test; details: Escherichia coli, EC14, read-out: Disc-Plate Zone Sizes
# P rettgeri PR-2 = experiment: Disc-plate test; details: read-out: Disc-Plate Zone Sizes
# K. pneumoniae KL-14 = experiment: Disc-plate test; details: Klebsiella pneumoniae, KL14, read-out: Disc-Plate Zone Sizes
# S. typhosa SA-12 = experiment: Disc-plate test; details: read-out: Disc-Plate Zone Sizes
# S. aureus 3.55 = experiment: Agar-dilution test; details: Staphylococcus aureus
# S. aureus 3074 = experiment: Agar-dilution test; details: Staphylococcus aureus
# S. faecalis X-66 = experiment: Agar-dilution test; details: Enterococcus faecalis, X66
# S. aureus 3055 = experiment: Therapy in experimental mouse infections; details: Staphylococcus aureus, 3055, in Mus musculus
# S. pyogenes C203 [21] = experiment: Therapy in experimental mouse infections; details: Streptococcus pyogenes
# gram positive bacteria = experiment: Antibacterial activity in standard test procedures
# NRRL 11459 [22] = experiment: Antibiotic sensitivity of the producing strain (sensitivity discs on seeded ISP #2 agar); assay type: cell-based, Streptomyces flocculus; details: 30° C., 14 days; note: key: +: sensitive (zones of inhibition); -: resistat (no zones of inhibition)
# Experimental: (§1) The cell wall sugars are determined using a modification of the procedure of M. Lechevalier, "Chemical Methods as Criteria for the Separation of Actinomycetes Into Genera", workshop sponsored by the subcommittee on Actionomycetes of the American Society of Microbology, Dr. Thoman G. Pridham, Convenor, held at the Institute of Microbology, Rutgurs University, New Brunswick, N.J., 1971. The isomer of diaminopimelic acid is determined using the method of B. Becker Appl. Microbiol., 11 421 ([…]). Amino acid analysis is determined with washed cell wall fragments. Melanoid pigments are determined using ISP #6 (peptone-yeast extract iron agar) and ISP #7 (tyrosine agar). Inhibitors are tested by incorporating varing concentrations of inhibitors into ISP #2 agar plates and streaking the culture on the surface. Starch hydrolysis is determined by testing for the presence of starch with iodine on ISP #4 agar plates. Temperature range, NaCl tolerance, pH range, and antibiotic sensitivity are done using ISP #2 agar medium. The range of temperatures are: 25°, 28°, 30°, 34°, 37°, 40°, 45°, 50°, 55° C. NaCl tolerance is measured by adding NaCl to the agar to equal: 0, 1, 2, 3, 4, 5, 6, 8, 10, 12% and incubating at 30° C. for 7 days. Antibiotic sensitivity is determined using sensitivity discs padded onto seeded agar plates of ISP #2 medium and incubating at 30° C. for 14 days.
# NRRL 11459 [23] = experiment: Inhibitor sensitivity of the producing strain (inhibitor in ISP #2 agar); assay type: cell-based, Streptomyces flocculus
# Experimental: as §1
# S. pneumoniae I [24] = experiment: Therapy in experimental mouse infections; details: Streptococcus pneumoniae
# [25] = NRRL11459, NRRL 11459, ISP #2 agar plates, read-out: Inhibitor sensitivity, MIC
compound,measurement,setting,value
CCC1OC(=O)CC(O)C(C)C(OC2OC(C)C(OC3CCC(O)C(C)O3)C(N(C)C)C2O)C(CC=O)CC(C)C(=O)C=CC2(C)OC2C1C (centres unmarked),MIC,[1],4 µg/mL
same,MIC,[2],2 µg/mL
same,MIC,[3],2 µg/mL
same,MIC,[4],2 µg/mL
same,MIC,[5],2 µg/mL
same,MIC,Peptococcus prevoti 1281,32 µg/mL
same,MIC,[6],2 µg/mL
same,MIC,[7],16 µg/mL
same,MIC,[8],2 µg/mL
same,MIC,[9],64 µg/mL
same,MIC,[10],16 µg/mL
same,MIC,[11],32 µg/mL
same,MIC,[12],8 µg/mL
same,MIC,[13],64 µg/mL
same,MIC,[14],32 µg/mL
same,MIC,[15],8 µg/mL
same,MIC,[16],32 µg/mL
same,MIC,[17],4 µg/mL
same,MIC,[18],16 µg/mL
same,zone of inhibition at 100 µg/disc,S. Aureus (3 strains),24 mm
same,zone of inhibition at 100 µg/disc,S. pyogenes C203 [19],20 mm
same,zone of inhibition at 100 µg/disc,Group D Streptococcus,20 mm
same,zone of inhibition at 100 µg/disc,S. pneumoniae I [20],35 mm
same,zone of inhibition at 100 µg/disc,E. coli Ec-14,10.2 mm
same,zone of inhibition at 100 µg/disc,P rettgeri PR-2,8 mm
same,zone of inhibition at 100 µg/disc,K. pneumoniae KL-14,0 mm
same,zone of inhibition at 100 µg/disc,S. typhosa SA-12,9.9 mm
same,MIC,S. aureus 3.55,1 µg/mL
same,MIC,S. aureus 3074,2 µg/mL
same,MIC,S. faecalis X-66,4 µg/mL
same,ED50,S. aureus 3055,5 mg/kg
same,ED50,S. pyogenes C203 [21],4.65 mg/kg
same,antibacterial activity,gram positive bacteria,"exhibit antibacterial activity, particularly against gram positive bacteria"
CC[C@H]1OC(=O)[C@H](C)[C@@H](O[C@H]2C[C@@](C)(OC)[C@@H](O)[C@H](C)O2)[C@H](C)[C@@H](O[C@@H]2O[C@H](C)C[C@H](N(C)C)[C@H]2O)[C@](C)(O)C[C@@H](C)C(=O)[C@H](C)[C@@H](O)[C@]1(C)O [Erythromycin],Antibiotic sensitivity,NRRL 11459 [22]; 15 μg/disc,+
CCC[C@@H]1C[C@@H](C(=O)N[C@@H]([C@H]2O[C@H](SC)[C@H](O)[C@@H](O)[C@H]2O)[C@@H](C)O)N(C)C1 [Lincomycin],Antibiotic sensitivity,NRRL 11459 [22]; 2 μg/disc,+
CC(=O)OCC1=C(C(=O)O)N2C(=O)[C@@H](NC(=O)Cc3cccs3)[C@H]2SC1 [Keflin],Antibiotic sensitivity,NRRL 11459 [22]; 30 μg/disc,-
C[C@@H]1[C@H](O)[C@@H](C)/C=C/C=C/CC/C=C/C=C/C=C/C=C/C(O[C@H]2O[C@H](C)[C@@H](O)[C@H](N)[C@@H]2O)CC2O[C@](O)(CC(O)C(O)CCC(O)CC(O)CC(O)CC(=O)O[C@H]1C)CC(O)C2C(=O)O (some centres unmarked) [Nystatin],Antibiotic sensitivity,NRRL 11459 [22]; 100 units/disc,-
O=C([O-])CC(O)(CC(=O)[O-])C(=O)[O-].[Bi+3] [Bismuth Citrate],"Inhibitor sensitivity, MIC","NRRL 11459 [23]; NRRL 11459, ISP #2 agar plates",> 500 µg/mL
O.O.O.O=C([O-])[C@H]([O-])[C@@H]([O-])C(=O)[O-].O=C([O-])[C@H]([O-])[C@@H]([O-])C(=O)[O-].[K+].[K+].[Sb+3].[Sb+3] [Antimony Potassium tartrate],"Inhibitor sensitivity, MIC","NRRL 11459 [23]; NRRL 11459, ISP #2 agar plates",250 µg/mL
Cc1cc2nc3cc(C)c(N)cc3[n+](-c3ccccc3)c2cc1N.[Cl-] [Safranin],"Inhibitor sensitivity, MIC","NRRL 11459 [23]; NRRL 11459, ISP #2 agar plates",10 µg/mL
CN(C)c1ccc(C(=C2C=CC(=[N+](C)C)C=C2)c2ccc(N(C)C)cc2)cc1 [Crystal Violet],MIC,NRRL 11459 [23]; [25],1 µg/mL
CCC1OC(=O)CC(O)C(C)C(OC2OC(C)C(OC3CCC(O)C(C)O3)C(N(C)C)C2O)C(CCO)CC(C)C(=O)C=CC2(C)OC2C1C (centres unmarked),MIC,[1],8 µg/mL
same,MIC,[2],16 µg/mL
same,MIC,[3],16 µg/mL
same,MIC,[4],8 µg/mL
same,MIC,[5],8 µg/mL
same,MIC,Peptococcus prevoti 1281,> 64 µg/mL
same,MIC,[6],16 µg/mL
same,MIC,[7],8 µg/mL
same,MIC,[8],1 µg/mL
same,MIC,[9],64 µg/mL
same,MIC,[10],64 µg/mL
same,MIC,[11],64 µg/mL
same,MIC,[12],16 µg/mL
same,MIC,[13],64 µg/mL
same,MIC,[14],64 µg/mL
same,MIC,[15],32 µg/mL
same,MIC,[16],32 µg/mL
same,MIC,[17],128 µg/mL
same,MIC,[18],128 µg/mL
same,zone of inhibition at 300 µg/disc,S. Aureus (3 strains),27 mm
same,zone of inhibition at 300 µg/disc,S. pyogenes C203 [19],24.2 mm
same,zone of inhibition at 300 µg/disc,Group D Streptococcus,22.5 mm
same,zone of inhibition at 300 µg/disc,S. pneumoniae I [20],36 mm
same,zone of inhibition at 300 µg/disc,E. coli Ec-14,14 mm
same,zone of inhibition at 300 µg/disc,P rettgeri PR-2,8.6 mm
same,zone of inhibition at 300 µg/disc,K. pneumoniae KL-14,11.3 mm
same,zone of inhibition at 300 µg/disc,S. typhosa SA-12,8.8 mm
same,MIC,S. aureus 3.55,32 µg/mL
same,MIC,S. aureus 3074,> 128 µg/mL
same,MIC,S. faecalis X-66,16 µg/mL
same,ED50,S. aureus 3055,> 70 mg/kg
same,ED50,S. pyogenes C203 [21],> 70 mg/kg
same,ED50,S. pneumoniae I [24],> 70 mg/kg
same,antibacterial activity,gram positive bacteria,"exhibit antibacterial activity, particularly against gram positive bacteria"
O=[Se](O)O [Sodium Selenite],MIC,NRRL 11459 [23]; [25],25 µg/mL
[N-]=[N+]=[N-] [Sodium Azide],MIC,"NRRL 11459 [23]; NRRL11459, read-out: Inhibitor sensitivity, MIC",10 µg/mL
[H]/N=C(/N)N[C@H]1[C@H](O)[C@@H](O)[C@H](O[C@@H]2O[C@@H](C)[C@](O)(C=O)[C@H]2O[C@@H]2O[C@@H](CO)[C@H](O)[C@@H](O)[C@@H]2NC)[C@@H](N/C(N)=N\[H])[C@@H]1O [Streptomycin],Antibiotic sensitivity,NRRL 11459 [22]; 10 μg/disc,+
Polymixin B,Antibiotic sensitivity,NRRL 11459 [22]; 300 units/disc,+
CC(=O)[O-].[Tl+] [Thallium Acetate],"Inhibitor sensitivity, MIC",NRRL 11459 [23],< 10 µg/mL
O=[Te]([O-])[O-].[K+].[K+] [Potassium Tellurite],"Inhibitor sensitivity, MIC","NRRL 11459 [23]; NRRL 11459, ISP #2 agar plates",> 500 µg/mL
CN(C)[C@@H]1C(O)=C(C(N)=O)C(=O)[C@@]2(O)C(O)=C3C(=O)c4c(O)cccc4[C@@](C)(O)[C@H]3C[C@@H]12 [Tetracycline],Antibiotic sensitivity,NRRL 11459 [22]; 30 μg/disc,+
CN[C@H](CC(C)C)C(=O)N[C@H]1C(=O)N[C@@H](CC(N)=O)C(=O)N[C@H]2C(=O)N[C@H]3C(=O)N[C@H](C(=O)N[C@H](C(=O)O)c4cc(O)cc(O)c4-c4cc3ccc4O)[C@H](O)c3ccc(c(Cl)c3)Oc3cc2cc(c3O[C@@H]2O[C@H](CO)[C@@H](O)[C@H](O)[C@H]2O[C@H]2C[C@](C)(N)[C@H](O)[C@H](C)O2)Oc2ccc(cc2Cl)[C@H]1O [Vancomycin],Antibiotic sensitivity,NRRL 11459 [22]; 30 μg/disc,+
